Measured values taken from patent US7351744B2, “Naphthalene derivatives as termite repellents and toxicants” (Board of Supervisors of Louisiana State University and …, priority 2003, dated 2008).

What was measured:
[1] = tested on: C. formosanus workers; assay: Repellency, choice of treated and untreated filter paper in three-chambered containers; type: in vivo, Coptotermes formosanus; conditions: preliminary study; 23 μg/cm^2
[2] = Longevity and volatility of the eleven chemicals; type: physicochemical; conditions: among the eleven chemicals tested
[3] = tested on: C. formosanus workers and soldiers; assay: Treated wood slices as sole food source; type: in vivo, Coptotermes formosanus; conditions: colonies C and WB combined
Method: To assay the effect of 2′-acetonaphthone on termites when added to a sole food source, acute and cumulative toxicities of 2′-acetonaphthone-treated filter paper (Whatman #2) and balsa wood (Ochroma lagopus Swartz) slices (2.3 cm×4.0 cm) were evaluated. Seven concentrations (0, 1, 10, 50, 100, 500, and 1000 mg/l) were prepared in 100 ml ethanol. Six filter papers and six wood slices were soaked in each concentration for 4 h; control filter papers and wood slices were soaked only in ethanol. After treatment, the food sources were kept overnight at ambient conditions for solvent evaporation. Eighty-four plastic containers (5.5 cm diameter×3.7 cm height) were provided with 22 g of wetted sand (20 g sand (fine blasting sand #4, Cement Products Inc., Baton Rouge, La.) mixed with 2 ml DDH2O). Then either a filter paper or a wood slice was separately placed to fit on the surface of the wetted sand and wetted with DDH2O (250 μl). Into each container, fifty workers and 20 soldiers were placed on the surface of the filter paper or wood slice. For each concentration and food sourse, three replicates received termites from colony C, and three replicates received termites from colony WB. The containers were covered and incubated for 10 days at 27.4° C. and 70% RH. Containers were monitored everytwo days to ensure suitable moisture. On days 1, 5 and 10, the number of living workers and soldiers were counted. An average percent survival was calculated for each treatment. (See Tables 2 and 3).

## CC(=O)c1ccc2ccccc2c1 [2′-acetonaphthone]
[1]
  feeding activity after 8 days exposure: negligible
  worker distribution: workers avoided the treated side
[2]
  longevity: highest longevity
  volatility: lowest volatility
[3]; wood slices 1 mg/l, Day 1, Soldier
  Percent survival: 93.33 ± 1.67 a %
[3]; wood slices 1 mg/l, Day 1, Worker
  Percent survival: 85.0 ± 5.29 a %
[3]; wood slices 1 mg/l, Day 5, Soldier
  Percent survival: 60.0 ± 13.54 a %
[3]; wood slices 1 mg/l, Day 5, Worker
  Percent survival: 55.33 ± 12.87 a %
[3]; wood slices 1 mg/l, Day 10, Soldier
  Percent survival: 47.50 ± 11.61 a %
[3]; wood slices 1 mg/l, Day 10, Worker
  Percent survival: 52.67 ± 12.55 a %
[3]; wood slices 10 mg/l, Day 1, Soldier
  Percent survival: 86.67 ± 4.41 a %
[3]; wood slices 10 mg/l, Day 1, Worker
  Percent survival: 83.33 ± 5.03 a %
[3]; wood slices 10 mg/l, Day 5, Soldier
  Percent survival: 54.17 ± 11.14 a %
[3]; wood slices 10 mg/l, Day 5, Worker
  Percent survival: 63.67 ± 11.13 a %
[3]; wood slices 10 mg/l, Day 10, Soldier
  Percent survival: 46.67 ± 12.36 a %
[3]; wood slices 10 mg/l, Day 10, Worker
  Percent survival: 50.67 ± 8.79 a %
[3]; wood slices 50 mg/l, Day 1, Soldier
  Percent survival: 85.0 ± 5.0 a %
[3]; wood slices 50 mg/l, Day 1, Worker
  Percent survival: 86.67 ± 5.26 a %
[3]; wood slices 50 mg/l, Day 5, Soldier
  Percent survival: 48.33 ± 10.38 a %
[3]; wood slices 50 mg/l, Day 5, Worker
  Percent survival: 65.0 ± 13.51 a %
[3]; wood slices 50 mg/l, Day 10, Soldier
  Percent survival: 39.17 ± 8.41 a %
[3]; wood slices 50 mg/l, Day 10, Worker
  Percent survival: 49.67 ± 10.23 a %
[3]; wood slices 100 mg/l, Day 1, Soldier
  Percent survival: 90.0 ± 2.89 a %
[3]; wood slices 100 mg/l, Day 1, Worker
  Percent survival: 88.67 ± 3.33 a %
[3]; wood slices 100 mg/l, Day 5, Soldier
  Percent survival: 55.83 ± 11.94 a %
[3]; wood slices 100 mg/l, Day 5, Worker
  Percent survival: 56.67 ± 12.15 a %
[3]; wood slices 100 mg/l, Day 10, Soldier
  Percent survival: 45.0 ± 9.58 a %
[3]; wood slices 100 mg/l, Day 10, Worker
  Percent survival: 47.67 ± 10.97 a %
[3]; wood slices 500 mg/l, Day 1, Soldier
  Percent survival: 80.83 ± 10.44 a %
[3]; wood slices 500 mg/l, Day 1, Worker
  Percent survival: 84.67 ± 2.41 a %
[3]; wood slices 500 mg/l, Day 5, Soldier
  Percent survival: 17.50 ± 7.61 b %
[3]; wood slices 500 mg/l, Day 5, Worker
  Percent survival: 54.33 ± 8.01 a %
[3]; wood slices 500 mg/l, Day 10, Soldier
  Percent survival: 4.17 ± 2.38 b %
[3]; wood slices 500 mg/l, Day 10, Worker
  Percent survival: 30.67 ± 9.18 a %
[3]; wood slices 1000 mg/l, Day 1, Soldier
  Percent survival: 84.17 ± 7.24 a %
[3]; wood slices 1000 mg/l, Day 1, Worker
  Percent survival: 86.67 ± 3.53 a %
[3]; wood slices 1000 mg/l, Day 5, Soldier
  Percent survival: 2.50 ± 2.49 b %
[3]; wood slices 1000 mg/l, Day 5, Worker
  Percent survival: 13.0 ± 9.85 b %
[3]; wood slices 1000 mg/l, Day 10, Soldier
  Percent survival: 0.0 ± 0.0 b %
[3]; wood slices 1000 mg/l, Day 10, Worker
  Percent survival: 5.67 ± 4.27 b %
